Type in all cases: functional
Experiment [1] deals with Phalaris minor. In words: Herbicidal activity against isoproturon-resistant Phalaris minor infested wheat field assessed as wheat yield at 60 g/ha applied at 35 days after sowing through sprayer measured 95 days after sowing (reference value: 3.05 t/ha).
The test system of experiment [2] is Phalaris minor. In words: Herbicidal activity against isoproturon-resistant Phalaris minor infested wheat field assessed as weed dry weight at 60 g/ha applied at 35 days after sowing through sprayer measured 95 days after sowing (reference value: 213.0 g/m2).
Experiment [3] concerns Melilotus albus. In words: Herbicidal activity against Melilotus albus infested wheat field assessed as weed dry weight at 60 g/ha applied at 32 to 35 days after sowing through sprayer measured 100 days after sowing (reference value: 313.7 g/m2).
The subject of experiment [4] is Phalaris minor. In words: Herbicidal activity against isoproturon-resistant Phalaris minor infested wheat field assessed as weed dry weight at 60 g/ha applied at 32 to 35 days after sowing through sprayer measured 100 days after sowing (reference value: 313.7 g/m2).
Experiment [5] concerns Phalaris minor. The experiment in a line: Herbicidal activity against isoproturon-resistant Phalaris minor infested wheat field assessed as wheat yield at 60 g/ha applied at 32 to 35 days after sowing through sprayer (reference value: 3.41 t/ha).
In experiment [6] the test system is Medicago polymorpha. The experiment in a line: Herbicidal activity against Medicago polymorpha infested wheat field assessed as weed dry weight at 60 g/ha applied at 32 to 35 days after sowing through sprayer measured 100 days after sowing (reference value: 313.7 g/m2).
In experiment [7] the test system is Lepidium didymum. In words: Herbicidal activity against Lepidium didymum infested wheat field assessed as weed dry weight at 60 g/ha applied at 32 to 35 days after sowing through sprayer measured 100 days after sowing (reference value: 313.7 g/m2).
Experiment [8] relates to Medicago polymorpha. The experiment in a line: Herbicidal activity against Medicago polymorpha infested wheat field assessed as weed dry weight at 120 g/ha applied at 32 to 35 days after sowing through sprayer measured 100 days after sowing (reference value: 313.7 g/m2).
The test system of experiment [9] is Phalaris minor. In words: Herbicidal activity against isoproturon-resistant Phalaris minor infested wheat field assessed as wheat yield at 120 g/ha applied at 32 to 35 days after sowing through sprayer (reference value: 3.41 t/ha).
The subject of experiment [10] is Lepidium didymum. The experiment in a line: Herbicidal activity against Lepidium didymum infested wheat field assessed as weed dry weight at 120 g/ha applied at 32 to 35 days after sowing through sprayer measured 100 days after sowing (reference value: 313.7 g/m2).
Experiment [11] has as its system Phalaris minor. In words: Herbicidal activity against isoproturon-resistant Phalaris minor infested wheat field assessed as weed dry weight at 120 g/ha applied at 32 to 35 days after sowing through sprayer measured 100 days after sowing (reference value: 313.7 g/m2).
Experiment [12] relates to Melilotus albus. The experiment in a line: Herbicidal activity against Melilotus albus infested wheat field assessed as weed dry weight at 120 g/ha applied at 32 to 35 days after sowing through sprayer measured 100 days after sowing (reference value: 313.7 g/m2).
Experiment [13] has as its system Phalaris minor. The experiment in a line: Post-emergence herbicidal activity against isoproturon-resistant Phalaris minor infested wheat field assessed as reduction in weed dry weight at 1000 g/ha applied on 1 after sowing through sprayer measured 120 days after sowing relative to control. The arrangement: scale not given: the % may be the effect or the level left.

Experiment [14] concerns Medicago polymorpha. The experiment in a line: Herbicidal activity against Medicago polymorpha infested wheat field assessed as weed dry weight at 1000 g/ha applied at 32 to 35 days after sowing through sprayer measured 100 days after sowing (reference value: 313.7 g/m2).
Experiment [15] relates to Phalaris minor. The experiment in a line: Herbicidal activity against isoproturon-resistant Phalaris minor infested wheat field assessed as wheat yield at 1000 g/ha applied at 35 days after sowing through sprayer measured 95 days after sowing (reference value: 3.05 t/ha).
Experiment [16] deals with Phalaris minor. In words: Herbicidal activity against isoproturon-resistant Phalaris minor infested wheat field assessed as weed dry weight at 1000 g/ha applied at 35 days after sowing through sprayer measured 95 days after sowing (reference value: 213.0 g/m2).
The test system of experiment [17] is Melilotus albus. The experiment in a line: Herbicidal activity against Melilotus albus infested wheat field assessed as weed dry weight at 1000 g/ha applied at 32 to 35 days after sowing through sprayer measured 100 days after sowing (reference value: 313.7 g/m2).
For experiment [18], the system named is Phalaris minor. In words: Herbicidal activity against isoproturon-resistant Phalaris minor infested wheat field assessed as weed dry weight at 1000 g/ha applied at 32 to 35 days after sowing through sprayer measured 100 days after sowing (reference value: 313.7 g/m2).
The test system of experiment [19] is Lepidium didymum. The experiment in a line: Herbicidal activity against Lepidium didymum infested wheat field assessed as weed dry weight at 1000 g/ha applied at 32 to 35 days after sowing through sprayer measured 100 days after sowing (reference value: 313.7 g/m2).
Experiment [20] concerns Phalaris minor. The experiment in a line: Herbicidal activity against isoproturon-resistant Phalaris minor infested wheat field assessed as wheat yield at 1000 g/ha applied at 32 to 35 days after sowing through sprayer (reference value: 3.41 t/ha).
Experiment [21] concerns Phalaris minor. The experiment in a line: Post-emergence herbicidal activity against isoproturon-resistant Phalaris minor infested wheat field assessed as reduction in weed dry weight at 280 g/ha applied on 1 after sowing through sprayer measured 120 days after sowing relative to control. Also on record: scale not given: the % may be the effect or the level left.
Experiment [22] deals with Phalaris minor. The experiment in a line: Pre-emergence herbicidal activity against isoproturon-resistant Phalaris minor infested wheat field assessed as reduction in weed dry weight at 1250 g/ha applied on 1 after sowing through sprayer measured 120 days after sowing relative to control. Also on record: scale not given: the % may be the effect or the level left.
Experiment [23] deals with Phalaris minor. In words: Herbicidal activity against isoproturon-resistant Phalaris minor infested wheat field assessed as weed dry weight at 30 g/ha applied at 35 days after sowing through sprayer in presence of 0.5 % surfactant A 12127 measured 95 days after sowing (reference value: 213.0 g/m2).
In experiment [24] the test system is Phalaris minor. In words: Herbicidal activity against isoproturon-resistant Phalaris minor infested wheat field assessed as wheat yield at 35 g/ha applied at 35 days after sowing through sprayer in presence of 0.5 % surfactant A 12127 measured 95 days after sowing (reference value: 3.05 t/ha).
Experiment [25] deals with Phalaris minor. In words: Herbicidal activity against isoproturon-resistant Phalaris minor infested wheat field assessed as weed dry weight at 35 g/ha applied at 35 days after sowing through sprayer in presence of 0.5 % surfactant A 12127 measured 95 days after sowing (reference value: 213.0 g/m2).
Experiment [26] has as its system Phalaris minor. The experiment in a line: Herbicidal activity against isoproturon-resistant Phalaris minor infested wheat field assessed as wheat yield at 30 g/ha applied at 35 days after sowing through sprayer in presence of 0.5 % surfactant A 12127 measured 95 days after sowing (reference value: 3.05 t/ha).
For experiment [27], the system named is Phalaris minor. In words: Herbicidal activity against isoproturon-resistant Phalaris minor infested wheat field assessed as wheat yield at 120 g/ha applied at 32 to 35 days after sowing through sprayer in presence of surfactant MON 0818 (reference value: 3.41 t/ha).
The test system of experiment [28] is Phalaris minor. In words: Herbicidal activity against isoproturon-resistant Phalaris minor infested wheat field assessed as weed dry weight at 120 g/ha applied at 32 to 35 days after sowing through sprayer in presence of surfactant MON 0818 measured 100 days after sowing (reference value: 313.7 g/m2).
Experiment [29] has as its system Medicago polymorpha. The experiment in a line: Herbicidal activity against Medicago polymorpha infested wheat field assessed as weed dry weight at 120 g/ha applied at 32 to 35 days after sowing through sprayer in presence of surfactant MON 0818 measured 100 days after sowing (reference value: 313.7 g/m2).
In experiment [30] the test system is Phalaris minor. In words: Post-emergence herbicidal activity against isoproturon-resistant Phalaris minor infested wheat field assessed as reduction in weed dry weight at 25 g/ha applied on 1 after sowing through sprayer measured 120 days after sowing relative to control. Also on record: scale not given: the % may be the effect or the level left.
Experiment [31] concerns Lepidium didymum. In words: Herbicidal activity against Lepidium didymum infested wheat field assessed as weed dry weight at 120 g/ha applied at 32 to 35 days after sowing through sprayer in presence of surfactant MON 0818 measured 100 days after sowing (reference value: 313.7 g/m2).
The subject of experiment [32] is Melilotus albus. The experiment in a line: Herbicidal activity against Melilotus albus infested wheat field assessed as weed dry weight at 120 g/ha applied at 32 to 35 days after sowing through sprayer in presence of surfactant MON 0818 measured 100 days after sowing (reference value: 313.7 g/m2).

Consider `C[C@@H](Oc1ccc(Oc2ncc(Cl)cc2F)cc1)C(=O)O` [CLODINAFOP], for which the Crop_yield in experiment [1] is on record as 5.42 tons/ha; in [5] it was 6.01 tons/ha. In addition, the Activity in experiment [2] was determined as 0.6 g/m2; in experiment [3] it was 38.3 g/m2; in experiment [4], 0.6 g/m2; in [6], 38.3 g/m2; in [7], 38.3 g/m2.

Take `C[C@@H](Oc1ccc(Oc2nc3ccc(Cl)cc3o2)cc1)C(=O)O` [FENOXAPROP-P]: the Activity was found to be 25.2 g/m2 in [8], 25.2 g/m2 in experiment [10], 5.9 g/m2 in experiment [11] and 25.2 g/m2 in [12]. For the same molecule, in [9], the Crop_yield is listed as 5.96 tons/ha.

Turning to `CC(C)c1ccc(NC(=O)N(C)C)cc1` [ISOPROTURON], the Activity in experiment [13] is 26.2%; in experiment [14], 3 g/m2; in experiment [16], 179.2 g/m2; in experiment [17], 3 g/m2; in experiment [18], 242 g/m2; in [19], 3 g/m2. For the same molecule, the Crop_yield is given as 3.61 tons/ha in experiment [15] and 3.99 tons/ha in experiment [20].

For the molecule `CSc1nnc(C(C)(C)C)c(=O)n1N` [METRIBUZIN], the Activity in experiment [21] amounted to 94.7%.

With `CCC(CC)Nc1c([N+](=O)[O-])cc(C)c(C)c1[N+](=O)[O-]` [PENDIMETHALIN], the Activity in [22] was 88.5%.

In the case of `CCc1cc(C)cc(CC)c1-c1c(OC(=O)C(C)(C)C)n2n(c1=O)CCOCC2` [PINOXADEN], the figures for the Activity in experiment [23] and in [25] were 2.3 g/m2 and 0.3 g/m2, respectively. The Crop_yield was determined as 5.38 tons/ha in experiment [24] and 5.44 tons/ha in [26].

As for `CCS(=O)(=O)c1nc2ccccn2c1S(=O)(=O)NC(=O)Nc1nc(OC)cc(OC)n1` [SULFOSULFURON], the Crop_yield in experiment [27] is recorded as 6.2 tons/ha. For the same molecule, the Activity was 0.3 g/m2 in [28]; 1.8 g/m2 in [29]; 93.8% in experiment [30]; 1.8 g/m2 in experiment [31]; 1.8 g/m2 in [32].

Source of the values: ChEMBL document CHEMBL3045527, “Herbicides for control of isoproturon-resistant Littleseed Canarygrass (Phalaris minor) in wheat” (2008).
